Patent US20110319340A1, “METHODS FOR TREATING CANCER” (The Board of Regents, The University of Texas System, priority 2008, published 2011)

How the values were obtained:
Type in all cases: cell-based
[1] = test system: metastasis associated in colon cancer 1 (MACC1); test: Gene array analysis of MACC1 mRNA in human coronary artery endothelial cells; settings: TNF alpha 5 ng/ml, 6 hours
Procedure: (§1) Human coronary artery endothelial cells (Cambrex BioScience; Walkersville, Md.) were split into T-75 flasks (BD Falcon) and cultured in endothelial cell basal medium (EBM) with 2% fetal bovine serum (FBS) and growth factors (SingleQuotsTM, Clonetics, San Diego, Calif.) in 5% CO2 at 37° C. […] After 6 hours of incubation, total RNA was isolated using RNAqueous kits (Ambion, Austin, Tex.) as described by the manufacturer. mRNA samples were reverse-transcribed using Taqman Reverse Transcription Reagents Kits (Applied Biosystems, Inc.) and analyzed by gene array analysis using […] plus 2 chip sets (Affimetrix). All procedures and analysis of gene array data were performed in the UTMB Molecular Genomics and MicroArray Core Facility.

[2] = test system: bovine aortic endothelial cells; test: Binding of KML4A colon cancer cells to bovine aortic endothelial cell monolayers; settings: TNF alpha 50 ng/ml for 24 hours; binding after 30 minutes
Procedure: In this experiment, bovine aortic endothelial cells (BAEC; Cambrex BioScience; Walkersville, Md.) were plated in 24-well plastic tissue culture plates (BD Falcon™) at a density of 35,000 cells per cm^2 and cultured in endothelial cell basal medium (EBM) with 2% fetal bovine serum (FBS) and growth factors (SingleQuots™, Clonetics, San Diego, Calif.) in 5% CO2 at 37° C. for three days. BAEC monolayer cultures were then pretreated with saline (Control) or TP508 (TP) and then treated with saline or TNF alpha (TNF, 50 ng/ml) for 24 hours. KML4A cells were labeled with fluorescent CytoTracker™ as described in Example 1 above and added to the BAEC monolayers in EBM medium complete with fetal bovine serum and SingleQuot growth factor supplements (30,000 cells per well). After thirty (30) minutes, the cell monlayers were rinsed two times to remove unbound KML4A cells and the monolayers were solubilized using 200 μl of Cell Solubilizing Solution (Cell Biolabs, Inc.). Fluorescence of the solubilized KML4A that had bound to the endothelial cells was measured by transferring aliquots of the solubilized monolayers to 96-well black plates and reading them in a SyQuest BioLabs Fluorescent Plate Reader (480 nm/520 nm). Data is expressed as Relative Fluorescence Units.

[3] = test system: bone morphogenetic protein 9 (BMP9); test: Gene array analysis of BMP9 expression in human coronary artery endothelial cells; settings: TP508 50 μg/ml or TNF alpha 5 ng/ml, 6 hours
Procedure: Human coronary artery endothelial cells (Cambrex BioScience; Walkersville, Md.) were split into T-75 flasks (BD Falcon) and cultured in endothelial cell basal medium (EBM) with 2% fetal bovine serum (FBS) and growth factors (SingleQuotsTM, Clonetics, San Diego, Calif.) in 5% CO2 at 37° C. […] All procedures and analysis of gene array data were performed in the UTMB Molecular Genomics and MicroArray Core Facility.

[4] = test system: melanoma cell adhesion molecule (MCAM); test: Gene array analysis of MCAM expression in human coronary artery endothelial cells; settings: TNF alpha 5 ng/ml, 6 hours
Procedure: as §1

[5] = test system: human microvascular endothelial cells; test: Phase contrast micrographs of human microvascular endothelial cells co-incubated with KML4A cells; settings: after 22 hours; TP508 50 μg/ml 8 hours pretreatment; thrombin 2 U/ml or TNF alpha 5 ng/ml 16 hours
Procedure: Human microvascular endothelial cells (Cambrex BioScience; Walkersville, Md.) were plated on 48-well tissue culture plates (BD Falcon) 30,000 cells per well, and cultured in endothelial cell basal medium (EBM) with 2% fetal bovine serum (FBS) and growth factors (SingleQuots™, Clonetics, San Diego, Calif.) in 5% CO2 at 37° C. for three days. […] Photomicrographs were captured at various times after addition of KML4A cells using an inverted Leitz Diavert microscope (original magnification, 200×) equipped with Spot Idea™ digital camera (Diagnostic Instruments, Inc.). Micrographs were taken at the center of each well to avoid any differences in original cell density.

snail homolog 3 (SNAI3) = test: Gene array analysis of SNAI3 expression in human coronary artery endothelial cells; settings: TNF alpha 5 ng/ml, 6 hours
Procedure: as §1, with “(Affimetrix).” for “(Affimetrix). All procedures and analysis of gene array data were performed in the UTMB Molecular Genomics and MicroArray Core Facility.”

[6] = test system: human umbilical vein endothelial cells; test: Transendothelial migration of KML4A tumor cells through human umbilical vein endothelial cell monolayer; settings: thrombin 2 U/ml for 24 hours; migration after 18 hr
From the text: In this experiment, as in Example 1, KML4A tumor cells derived from a human colon cancer and selected for repeated metastasis to the liver (Morikawa et al., supra) were harvested from established cultures and labeled with fluorescent CytoTracker™ (Cell Biolabs, inc.) and re-established as a uniform cell suspension. Human endothelial cell monolayers were established in transmembrane inserts supplied by Cell Biolabs, Inc., by plating 50,000 human umbilical vein endothelial cells (Cambrex BioScience; Walkersville, Md.) per insert and culturing them in endothelial cell basal medium (EBM) with 2% fetal bovine serum (FBS) and growth factors (SingleQuots™, Clonetics, San Diego, Calif.) in 5% CO2 at 37° C. for three days. […] Fluorescently labeled KML4A tumor cells (35,000 cells per insert in serum-free medium containing 1% bovine serum albumin) were then added to the culture inserts and the inserts placed into wells of a 24-well tissue culture plate (BD Falcon) with 0.5 ml of growth medium containing 10% fetal bovine serum to act as a chemoatractant for the tumor cells. The number of cells migrating through the filter inserts to the filter bottom was determined 18 hr later by measuring the fluorescence of material recovered from the filter bottom using a SyQuest BioLabs Fluorescent Plate Reader (480 nm/529 nm). Data is expressed as Relative Fluorescence Units.

[7] = test system: human umbilical vein endothelial cells; test: Phase contrast micrographs of human umbilical vein endothelial cells co-incubated with KML4A cells; settings: after 22 hours; thrombin 2 U/ml 16 hours, with or without TP508 50 μg/ml 8 hours pretreatment
From the text: Photomicrographs were captured at various times after addition of KML4A cells using an inverted Leitz Diavert microscope (original magnification, 200×) equipped with Spot Idea™ digital camera (Diagnostic Instruments, Inc.). Micrographs were taken at the center of each well to avoid any differences in original cell density.

**Q.** What does the source list for TNF alpha?
**A.** effect on endothelial cell expression of MACC1 mRNA [1]: increases endothelial cell expression of MACC1; increase of binding of KML4A cells [2]: approximately 8 fold; effect on expression of BMP9 [3]: does not; effect on endothelial cell expression of MCAM [4]: increases endothelial cell expression of MCAM; endothelial cell damage and loss after co-incubation with KML4A cells [5]: damaged and released from the culture substrate; effect on endothelial cell expression of SNAI3 (snail homolog 3 (SNAI3)): increases endothelial cell expression of SNAI3

**Q.** Which “effect on KML4A transedothelial migration” value [6] does the source give for Thrombin here?
**A.** increased transedothelial migration

**Q.** And the “endothelial cells remaining after co-incubation with KML4A cells” value [7]?
**A.** few if any remaining endothelial cells

**Q.** What about the “endothelial cell damage and loss after co-incubation with KML4A cells” value [5] of the same substance?
**A.** damaged and released from the culture substrate
